Measured values taken from publication PMC5069568 (Diabetes, Obesity & Metabolism, 2016).

Tests used:
Format in all cases: in vivo, human
[1] = system: obese or overweight adults; test: Exposure–body weight loss analysis, clinical Trials 1–3; conditions: Trial 1, liraglutide 3.0 mg, overall female population
[2] = system: obese or overweight adults with type 2 diabetes; test: Exposure–HbA1c analysis, Trial 2; conditions: Trial 2, type 2 diabetes, corresponds to ∼500 nM × h
[3] = system: obese or overweight adults; test: Exposure–safety outcome analyses

CCCCCCCCCCCCCCCC(=O)N[C@@H](CCC(=O)NCCCC[C@H](NC(=O)[C@H](C)NC(=O)[C@H](C)NC(=O)[C@H](CCC(N)=O)NC(=O)CNC(=O)[C@H](CCC(=O)O)NC(=O)[C@H](CC(C)C)NC(=O)[C@H](Cc1ccc(O)cc1)NC(=O)[C@H](CO)NC(=O)[C@H](CO)NC(=O)[C@@H](NC(=O)[C@H](CC(=O)O)NC(=O)[C@H](CO)NC(=O)[C@@H](NC(=O)[C@H](Cc1ccccc1)NC(=O)[C@@H](NC(=O)CNC(=O)[C@H](CCC(=O)O)NC(=O)[C@H](C)NC(=O)[C@@H](N)Cc1cnc[nH]1)[C@@H](C)O)[C@@H](C)O)C(C)C)C(=O)N[C@@H](CCC(=O)O)C(=O)N[C@@H](Cc1ccccc1)C(=O)N[C@H](C(=O)N[C@@H](C)C(=O)N[C@@H](Cc1c[nH]c2ccccc12)C(=O)N[C@@H](CC(C)C)C(=O)N[C@H](C(=O)N[C@@H](CCCNC(=N)N)C(=O)NCC(=O)N[C@@H](CCCNC(=N)N)C(=O)NCC(=O)O)C(C)C)[C@@H](C)CC)C(=O)O [liraglutide, Liraglutide]
weight loss [1]: 9.3 kg | weight loss from baseline [1]: 9.2% | liraglutide plasma concentration at which HbA1c reduction plateaued [2]: ~21 nM | effect on serum calcitonin levels ([3]; all three trials, change from baseline over all exposure quantiles): did not result in elevated serum calcitonin levels | increase in mean resting pulse versus placebo ([3]; liraglutide-treated individuals, doses 1.2–3.0 mg, Trials 1–3): 2–3 beats per min
